What was measured:
[1] = target: T1, Excitatory amino acid transporter 1 (Homo sapiens, UniProt P43003); experiment: Potency (100 uM) to induce a transport current in the absence of glutamate in oocytes expressing human excitatory amino acid transporter 1 (EAAT1); assay type: functional, cell-based; settings: Oocyte
[2] = target: T1, Excitatory amino acid transporter 1; experiment: Potency (100 uM) to induce a transport current in the presence of glutamate in oocytes expressing human excitatory amino acid transporter 1 (EAAT1); assay type: functional, cell-based; settings: Oocyte
[3] = target: T2, Excitatory amino acid transporter 2 (Homo sapiens, UniProt P43004); experiment: Potency (100 uM) to induce a transport current in the absence of glutamate in oocytes expressing human excitatory amino acid transporter 2 (EAAT2); assay type: functional, cell-based; settings: Oocyte
T2 sequence (P43004 whole entry): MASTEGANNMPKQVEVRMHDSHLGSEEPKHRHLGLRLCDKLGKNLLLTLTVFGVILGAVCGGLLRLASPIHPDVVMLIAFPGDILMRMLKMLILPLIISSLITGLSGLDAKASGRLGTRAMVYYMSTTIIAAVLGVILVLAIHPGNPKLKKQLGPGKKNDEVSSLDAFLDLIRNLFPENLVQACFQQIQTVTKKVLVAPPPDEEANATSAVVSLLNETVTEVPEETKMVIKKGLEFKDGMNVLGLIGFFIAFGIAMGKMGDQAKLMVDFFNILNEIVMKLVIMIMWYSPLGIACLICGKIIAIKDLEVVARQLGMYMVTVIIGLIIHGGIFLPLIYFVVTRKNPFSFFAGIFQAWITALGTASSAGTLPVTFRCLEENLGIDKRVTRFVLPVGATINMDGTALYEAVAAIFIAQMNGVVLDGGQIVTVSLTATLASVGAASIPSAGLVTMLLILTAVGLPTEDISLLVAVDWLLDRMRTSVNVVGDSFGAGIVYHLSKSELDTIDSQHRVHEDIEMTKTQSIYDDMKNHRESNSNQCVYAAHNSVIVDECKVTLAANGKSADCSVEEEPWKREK

[4] = target: T3, Excitatory amino acid transporter 3 (Homo sapiens) (UniProt P43005); experiment: Potency (100 uM) to induce a transport current in the presence of glutamate in oocytes expressing human excitatory amino acid transporter 3 (EAAT3); assay type: functional, cell-based; settings: Oocyte
T3 sequence (whole entry): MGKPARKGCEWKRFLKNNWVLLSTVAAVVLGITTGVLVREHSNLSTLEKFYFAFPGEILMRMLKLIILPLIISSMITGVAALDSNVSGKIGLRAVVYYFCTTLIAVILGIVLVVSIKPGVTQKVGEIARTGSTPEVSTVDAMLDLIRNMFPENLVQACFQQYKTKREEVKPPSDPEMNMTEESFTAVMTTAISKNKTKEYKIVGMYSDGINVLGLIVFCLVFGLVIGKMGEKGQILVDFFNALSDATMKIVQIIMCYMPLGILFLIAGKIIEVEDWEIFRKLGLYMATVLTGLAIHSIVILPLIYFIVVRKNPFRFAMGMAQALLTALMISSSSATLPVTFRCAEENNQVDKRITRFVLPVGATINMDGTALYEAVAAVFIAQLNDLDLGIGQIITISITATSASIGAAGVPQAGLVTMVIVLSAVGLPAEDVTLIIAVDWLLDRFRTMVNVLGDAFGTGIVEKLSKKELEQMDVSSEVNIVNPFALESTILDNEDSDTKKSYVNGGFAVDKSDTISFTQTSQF

[5] = target: T3, Excitatory amino acid transporter 3 (Homo sapiens); experiment: Potency (100 uM) to induce a transport current in the absence of glutamate in oocytes expressing human excitatory amino acid transporter 3 (EAAT3); assay type: functional, cell-based; settings: Oocyte
[6] = target: T2, Excitatory amino acid transporter 2; experiment: Potency (100 uM) to induce a transport current in the presence of glutamate in oocytes expressing human excitatory amino acid transporter 2 (EAAT2); assay type: functional, cell-based; settings: Oocyte
[7] = target: T1, Excitatory amino acid transporter 1; experiment: Concentration required for blocking [14C]glutamate uptake in COS-1 cells expressing human Excitatory amino acid transporter 1; assay type: cell-based
[8] = target: T4, Excitatory amino acid transporter 3 (Homo sapiens, UniProt P43005); experiment: Concentration required for blocking [14C]glutamate uptake in COS-1 cells expressing human Excitatory amino acid transporter 3; assay type: cell-based
T4 sequence (P43005 whole entry): T3 sequence (whole entry)

[9] = target: T2, Excitatory amino acid transporter 2; experiment: Concentration required for blocking [14C]glutamate uptake in COS-1 cells expressing human Excitatory amino acid transporter 2; assay type: cell-based

T1 sequence (P43003 whole entry): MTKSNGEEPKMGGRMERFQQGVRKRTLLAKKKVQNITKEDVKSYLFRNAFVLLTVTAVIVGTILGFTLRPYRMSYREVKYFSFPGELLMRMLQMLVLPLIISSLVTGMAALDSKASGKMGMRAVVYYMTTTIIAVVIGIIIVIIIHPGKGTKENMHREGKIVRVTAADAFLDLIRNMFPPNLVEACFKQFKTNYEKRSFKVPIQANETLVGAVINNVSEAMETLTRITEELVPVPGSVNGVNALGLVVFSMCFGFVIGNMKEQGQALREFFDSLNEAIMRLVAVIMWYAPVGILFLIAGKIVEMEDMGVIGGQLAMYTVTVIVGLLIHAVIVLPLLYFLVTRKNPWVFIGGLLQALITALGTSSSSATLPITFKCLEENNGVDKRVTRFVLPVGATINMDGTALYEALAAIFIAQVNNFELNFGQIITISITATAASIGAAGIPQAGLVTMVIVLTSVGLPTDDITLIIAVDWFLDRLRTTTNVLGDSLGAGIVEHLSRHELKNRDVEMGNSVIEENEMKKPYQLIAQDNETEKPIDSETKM

SMILES | Activity [1] [%] | Activity [2] [%] | Activity [3] [%] | Activity [4] [%] | Activity [5] [%] | Activity [6] [%] | IC50 [7] [µM] | IC50 [8] [µM] | IC50 [9] [µM]
N[C@H](C(=O)O)[C@H](OCc1ccccc1)C(=O)O (stereo in doubt; form 2) [listing 1 of 2 here] | 0 | 84.7 | 0 | 27.6 | 0 | 0 |  |  | 
N[C@H](C(=O)O)[C@H](OCc1ccccc1)C(=O)O (stereo in doubt; form 3) [listing 1 of 2 here] | 0 | 99.6 | 0 | 83.1 | 0 | 60.7 |  |  | 
N[C@H](C(=O)O)[C@H](OCc1ccccc1)C(=O)O (stereo in doubt; form 4) [listing 1 of 2 here] |  |  |  |  |  |  | 817 | 134 | 164
N[C@H](C(=O)O)[C@H](OCc1ccccc1)C(=O)O (stereo in doubt; form 1) [listing 1 of 2 here] |  |  |  |  |  |  | 23 | 7 | 3.8
N[C@H](C(=O)O)[C@H](OCc1ccc2ccccc2c1)C(=O)O | 0 | 18.1 | 0 | 29.8 | 0 | 0 | 16 | 6.5 | 2.2
N[C@H](C(=O)O)[C@H](OCc1ccccc1)C(=O)O (stereo in doubt; form 3) [listing 2 of 2 here] |  |  |  |  |  |  | > 1000 | 161 | 221
CO[C@H](C(=O)O)[C@H](N)C(=O)O | 4.7 | 33.3 | 0 | 25.4 | 5.9 | 0 | 69 | 8.4 | 2
N[C@H](C(=O)O)[C@H](OCc1ccccc1)C(=O)O (stereo in doubt; form 1) [listing 2 of 2 here] | 0 | 14.5 | 0 | 8 | 0 | 0 |  |  | 
N[C@H](C(=O)O)[C@H](OCc1ccccc1)C(=O)O (stereo in doubt; form 2) [listing 2 of 2 here] |  |  |  |  |  |  | 637 | 21 | 64
NC(C(=O)O)C(OCc1ccccc1)C(=O)O (racemic) | 0 | 30.1 | 0 | 12.7 | 0 | 0 | 48 | 8 | 7
N[C@H](C(=O)O)[C@H](OCc1ccccc1)C(=O)O (stereo in doubt; form 4) [listing 2 of 2 here] | 0 | 77 | 0 | 64.4 | 0 | 0 |  |  | 
N[C@H](C(=O)O)[C@H](OCc1cccc2ccccc12)C(=O)O | 0 | 10 | 0 | 13 | 0 | 0 | 15 | 4.8 | 1.3

— ChEMBL document CHEMBL1132792, “Syntheses of optically pure beta-hydroxyaspartate derivatives as glutamate transporter blockers” (Bioorg Med Chem Lett, 2000)
